Measurements reported in patent US7429571B2, “Therapeutic furopyrimidines and thienopyrimidines” (BioCryst Pharmaceuticals, Inc., priority 2004, dated 2008).

Tested on: not given
Settings: not given

SMILES	melting point [°C]
OC[C@H]1O[C@@H](c2coc3c(N4CCCC4)ncnc23)[C@H](O)[C@@H]1O	198
C[C@@]1(O)[C@H](O)[C@@H](CO)O[C@H]1c1coc2c(N(N)CCO)ncnc12	84 to 92
CN(N)c1ncnc2c([C@@H]3O[C@H](CO)[C@@H](O)[C@@]3(C)O)coc12	70 to 84
C[C@@]1(O)[C@H](O)[C@@H](CO)O[C@H]1c1coc2c(=O)[nH]c(N)nc12	80 to 84
CNc1ncnc2c([C@@H]3O[C@H](CO)[C@@H](O)[C@H]3O)coc12	88 to 100
CCNc1ncnc2c([C@@H]3O[C@H](CO)[C@@H](O)[C@H]3O)coc12	76 to 88
CC(C)Nc1ncnc2c([C@@H]3O[C@H](CO)[C@@H](O)[C@H]3O)coc12	58 to 80
CN(C)c1ncnc2c([C@@H]3O[C@H](CO)[C@@H](O)[C@H]3O)coc12	210
CCCNc1ncnc2c([C@@H]3O[C@H](CO)[C@@H](O)[C@H]3O)coc12	58 to 80
OC[C@H]1O[C@@H](c2coc3c(NC4CC4)ncnc23)[C@H](O)[C@@H]1O	88 to 100
OC[C@H]1O[C@@H](c2coc3c(N4CCC4)ncnc23)[C@H](O)[C@@H]1O	192
COC(=O)C(NP(=O)(OC[C@H]1O[C@@H](c2coc3c(N)ncnc23)[C@](C)(O)[C@@H]1O)Oc1ccccc1)C(C)C (stereo in doubt)	58 to 62

Tested on: HCV
Settings: patients, sole treatment; cited from earlier work

SMILES	effect on serum levels of HCV-RNA
NC(=O)c1ncn([C@@H]2O[C@H](CO)[C@@H](O)[C@H]2O)n1 [Ribavirin, 1-β-D-ribofuranosyl-1-1,2,4-triazole-3-carboxamide]	does not lower serum levels of HCV-RNA

Same assay, conditions: ribavirin alone; cited from earlier work

SMILES	patients in whom serum amino transferase levels are reduced to normal [%]
NC(=O)c1ncn([C@@H]2O[C@H](CO)[C@@H](O)[C@H]2O)n1 [Ribavirin, 1-β-D-ribofuranosyl-1-1,2,4-triazole-3-carboxamide]	40
